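1) Cells in 96-well plates. 2) Compound, 48 h, 5 concentrations. 3) Linear interpolation between surrounding doses. 4) Unreached endpoint = highest concentration. The concentration for 50% growth inhibition is given as GI50.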 Activity calls are given as the source filed them. Rule as the data show it: active = GI50 up to about 1.1 µM and inactive = higher.
Tests used:
Assay in all cases: NCI-60 cell line screen, 48 h
786-0 = system: 786-0
A498 = system: A498
A549 = system: A549
ACHN = system: ACHN
BT-549 = system: BT-549
CAKI-1 = system: CAKI-1
CCRF-CEM = system: CCRF-CEM
COLO 205 = system: COLO 205
DU-145 = system: DU-145
EKVX = system: EKVX
HCC 2998 = system: HCC 2998
HCT-116 = system: HCT-116
HCT-15 = system: HCT-15
HL-60 = system: HL-60
HOP-62 = system: HOP-62
HOP-92 = system: HOP-92
HT-29 = system: HT-29
Hs-578T = system: Hs-578T
IGROV-1 = system: IGROV-1
K562 = system: K562
KM12 = system: KM12
LOX IMVI = system: LOX IMVI
M14 = system: M14
MCF7 = system: MCF7
MDA-MB-231 = system: MDA-MB-231
MDA-MB-435 = system: MDA-MB-435
MDA-N = system: MDA-N
MOLT-4 = system: MOLT-4
Malme-3M = system: Malme-3M
NCI-H226 = system: NCI-H226
NCI-H23 = system: NCI-H23
NCI-H460 = system: NCI-H460
NCI-H522 = system: NCI-H522
NCI/ADR-RES = system: NCI/ADR-RES
OVCAR-3 = system: OVCAR-3
OVCAR-4 = system: OVCAR-4
OVCAR-5 = system: OVCAR-5
OVCAR-8 = system: OVCAR-8
PC-3 = system: PC-3
RPMI-8226 = system: RPMI-8226
RXF 393 = system: RXF 393
SF-268 = system: SF-268
SF-295 = system: SF-295
SF-539 = system: SF-539
SK-MEL-28 = system: SK-MEL-28
SK-MEL-2 = system: SK-MEL-2
SK-MEL-5 = system: SK-MEL-5
SK-OV-3 = system: SK-OV-3
SN12C = system: SN12C
SNB-19 = system: SNB-19
SNB-75 = system: SNB-75
SR = system: SR
SW-620 = system: SW-620
T47D = system: T47D
TK-10 = system: TK-10
U-251 = system: U-251
UACC-257 = system: UACC-257
UACC-62 = system: UACC-62
UO-31 = system: UO-31
DMS-114 = system: DMS-114
DMS-273 = system: DMS-273
KM-20L2 = system: KM-20L2
LXFL 529 = system: LXFL 529
M19-MEL = system: M19-MEL
SNB-78 = system: SNB-78

Measured: GI50

Cc1ccc(-c2cc(-c3cc(-c4ccc(C)cc4C)[nH]n3)[nH]n2)c(C)c1
15.4 µM: HCT-15
inactive: 786-0 13 µM | A498 16.6 µM | A549 13.9 µM | ACHN 11.5 µM | BT-549 21.9 µM | CAKI-1 18.8 µM | COLO 205 12.7 µM | DU-145 16.3 µM | EKVX 20.7 µM | HCC 2998 13.2 µM | HCT-116 16 µM | HOP-62 13.9 µM | HOP-92 18.9 µM | HT-29 10.8 µM | Hs-578T 18.1 µM | IGROV-1 13.7 µM | K562 15.5 µM | KM12 17.7 µM | LOX IMVI 19.9 µM | M14 15.8 µM | MCF7 15 µM | MDA-MB-231 16.2 µM | MDA-MB-435 14.7 µM | MDA-N 14.9 µM | MOLT-4 10.1 µM | Malme-3M 11.1 µM | NCI-H226 20.5 µM | NCI-H23 19.8 µM | NCI-H460 7.93 µM | NCI-H522 13.9 µM | NCI/ADR-RES 18.9 µM | OVCAR-3 12.2 µM | OVCAR-4 8.71 µM | OVCAR-5 23.7 µM | OVCAR-8 15 µM | PC-3 15.1 µM | RPMI-8226 2.66 µM | RXF 393 14.4 µM | SF-268 12.5 µM | SF-295 13.1 µM | SF-539 17 µM | SK-MEL-28 13.7 µM | SK-MEL-2 18.2 µM | SK-MEL-5 16.4 µM | SK-OV-3 15.2 µM | SN12C 15.3 µM | SNB-19 18.5 µM | SNB-75 18.3 µM | SR 10.2 µM | SW-620 11.8 µM | T47D 15 µM | TK-10 15.6 µM | U-251 13.5 µM | UACC-257 12.4 µM | UACC-62 24.8 µM | UO-31 23 µM
active: CCRF-CEM 0.71 µM | HL-60 0.027 µM

S=c1nc2c(c[nH]1)C1c3ccccc3C2c2ccccc21
inactive: 786-0 > 100 µM | A549 68.9 µM | ACHN 61.2 µM | CCRF-CEM 55 µM | COLO 205 88.7 µM | DMS-114 62.2 µM | DMS-273 > 100 µM | EKVX 38.5 µM | HCT-116 > 100 µM | HL-60 28.3 µM | HOP-62 > 100 µM | HT-29 > 10 µM | IGROV-1 69.2 µM | K562 45.6 µM | KM-20L2 > 100 µM | KM12 44.1 µM | LOX IMVI > 100 µM | LXFL 529 > 100 µM | M14 79.8 µM | M19-MEL > 100 µM | MOLT-4 31.8 µM | Malme-3M > 100 µM | NCI-H226 > 100 µM | NCI-H23 > 100 µM | NCI-H460 > 100 µM | NCI-H522 46 µM | OVCAR-3 67.5 µM | OVCAR-4 39.2 µM | OVCAR-5 > 100 µM | OVCAR-8 > 100 µM | RPMI-8226 35.9 µM | RXF 393 35.2 µM | SF-268 > 100 µM | SF-295 40.1 µM | SF-539 > 100 µM | SK-MEL-28 > 100 µM | SK-MEL-2 57.7 µM | SK-MEL-5 73.8 µM | SN12C > 100 µM | SNB-19 82.4 µM | SNB-75 15.9 µM | SNB-78 > 100 µM | SR 34 µM | SW-620 > 100 µM | TK-10 > 100 µM | U-251 91.2 µM | UACC-62 59.6 µM | UO-31 39.5 µM
80.2 µM: HCT-15

From ChEMBL document CHEMBL1201862, “PubChem BioAssay data set” (2004)
